Where two headings read alike, the source gives them in different places. Peptide text beside a SMILES is read from it.
Legend:
[1] = system: V. vulnificus; assay type: cell-based, Vibrio vulnificus
Experimental: (§1) To understand the effects of pH on TP3 or TP4, the reagents were dissolved in ddH2O, 1 M HCl or 1 M NaOH to obtain solutions with different pH values. For the temperature-dependent functional study, the TP3 or TP4 was added to a solution in a water bath (Basic life, model BL3002, Taiwan) and incubated for 60 minutes at different temperatures (40, 60, 80, or 100°C). To evaluate the effects of TP3 and TP4 on pepsin and trypsin function, each peptide was incubated for 10 or 30 minutes with different concentrations of pepsin or trypsin (0.1, 1, or 10 μg/ml), and we determined the MIC values after incubating these solutions with cells at 28°C for 720 minutes, according to a previously described MIC experimental protocol.

[2] = system: V. vulnificus; assay: microbe, parasite or virus in culture; assay type: cell-based, Vibrio vulnificus; details: peptide treated from room temperature to as high as 100°C; 16 hours of incubation
Experimental: as §1, with “[…],” for “and we determined the MIC values after incubating these solutions with cells at 28°C for 720 minutes,”

[3] = in vivo; set-up: species or system tilapia (Oreochromis hybrids, Tilapia spp.); details: iv, 0.2 mg/kg
Experimental: The peptide half-life of TP3 and TP4 were investigated in male tilapia (Oreochromis hybrids, Tilapia spp., with a mean body length of 32.33±1.5 cm and a mean body weight of 1117±78.2 g) after intravenous administration of a single dose of 0.2 mg/kg of peptide. The TP3 and TP4 concentrations in serum samples were determined at 10, 30, 60, 120, 180, 240, 300, and 360 minutes for TP3 and at 10, 60, 120, 180, 240, 300, and 360 minutes after dosing for TP4. At each sample collection time point, we anesthetized three fish and collected their blood. The blood was centrifuged to obtain fish serum, which was assessed by liquid chromatography-mass spectrometry/mass spectrometry (LC-MS/MS) at Mission Biotech (Taipei, Taiwan).

[4] = system: tilapia; assay: Toxicity of peptide alone, tilapia survival; assay type: in vivo, tilapia (Oreochromis spp.); details: abdominal cavity, no infection, seven days (S2 Fig)
Experimental: The antimicrobial activities of TP3 and TP4 peptides were analyzed in tilapia infected with lethal amounts of bacteria. Different amounts of V. vulnificus were injected into the abdominal cavities of the fish, and survival rates were recorded as cumulative percentages (S1 Fig). To determine whether TP3 and TP4 had any toxic effects on the tilapia, we injected different doses of TP3 and TP4 (0.1, 1, 10, 20, 30, 40, or 50 μg/fish) into the abdominal cavity and recorded the cumulative survival percentage of the fish (S2 Fig). We also co-treated tilapia with different doses (0.1, 1, 10, 20 μg/fish) of TP3 or TP4 combined with 2x10^4 CFU of V. vulnificus to evaluate tilapia survival following treatment. […] After 14, 21, or 28 days following the first co-treatment with TP3, the tilapia that survived in the 20 μg/fish TP3 experimental group were injected with a second dose of 2x10^4 CFU of V. vulnificus, and the survival rates were measured for another seven days. […] In the co-treatment experiments, at 14, 21, or 28 days after the first co-treatment with TP4, the surviving tilapia in the 20 μg/fish TP4 experimental group received a second injection of 2x10^4 CFU of V. vulnificus, and the survival rates were measured for another seven days.
Supplementary file pone.0169678.s002.pdf: S2 Fig Determination of tilapia survival rates seven days after injection with different concentrations of TP3 or TP4. (a) The survival rates of tilapia injected with TP3 at a dose of 0.1 μg/fish, 1 μg/fish, or 10 μg/fish. (b) The percentage of tilapia surviving after injection with TP4 at 0.1 μg/fish, 1 μg/fish, or 10 μg/fish. (c) The percentage of tilapia surviving after injection with TP3 at 20 μg/fish, 30 μg/fish, 40 μg/fish, or 50 μg/fish. (d) The percentage of tilapia surviving after injection with TP4 at 20 μg/fish, 30 μg/fish, 40 μg/fish, or 50 μg/fish. The control group (control) was injected with PBS alone. (PDF) Click here for additional data file.

Compound | decrease of antimicrobial activity ([1]; pepsin 0.1 μg/ml, 30 minutes) | decrease of antimicrobial activity ([1]; pepsin 1 μg/ml, 10 minutes) | decrease of antimicrobial activity ([1]; trypsin 1 μg/ml, 10 minutes) | decrease of antimicrobial activity ([1]; trypsin 1 μg/ml, 30 minutes) | decrease of antimicrobial activity ([1]; trypsin 10 μg/ml, 10 minutes) | concentration sufficient to eliminate V. vulnificus [2] | half-life of the injected peptide in tilapia serum [3] | percent survival after injection of peptide only ([4]; 20 μg/fish) | percent survival after injection of peptide only ([4]; 30 μg/fish) | percent survival after injection of peptide only ([4]; 40 μg/fish) | percent survival after injection of peptide only ([4]; 50 μg/fish)
CC[C@H](C)[C@H](NC(=O)[C@H](C)NC(=O)[C@H](CCCCN)NC(=O)CNC(=O)[C@H](C)NC(=O)[C@H](CO)NC(=O)[C@H](Cc1ccccc1)NC(=O)[C@H](CC(C)C)NC(=O)CNC(=O)CNC(=O)[C@@H](NC(=O)[C@@H](NC(=O)[C@H](Cc1c[nH]cn1)NC(=O)[C@H](Cc1c[nH]cn1)NC(=O)[C@@H](NC(=O)[C@@H](N)Cc1ccccc1)[C@@H](C)CC)[C@@H](C)CC)[C@@H](C)CC)C(=O)N[C@@H](Cc1c[nH]cn1)C(=O)N[C@@H](CCCNC(=N)N)C(=O)N[C@@H](CC(C)C)C(=O)N[C@H](C(=O)N[C@@H](CCCNC(=N)N)C(=O)N[C@@H](CCCNC(=N)N)C(=O)N[C@@H](CCCNC(=N)N)C(=O)N[C@@H](CCCNC(=N)N)C(=O)N[C@@H](CCCNC(=N)N)C(=O)O)[C@@H](C)CC [TP4, tilapia piscidin 4] (H-FIHHIIGGLFSAGKAIHRLIRRRRR-OH) | eight-fold | two-fold | two-fold | four-fold | eight-fold | 31.2 µg/mL | – | – | – | – | –
CC[C@H](C)[C@H](NC(=O)[C@H](CC(C)C)NC(=O)[C@H](CO)NC(=O)[C@H](Cc1c[nH]cn1)NC(=O)[C@@H](NC(=O)[C@H](Cc1c[nH]cn1)NC(=O)[C@H](CCCCN)NC(=O)CNC(=O)[C@@H](NC(=O)[C@H](CO)NC(=O)[C@H](Cc1ccccc1)NC(=O)[C@H](CC(C)C)NC(=O)CNC(=O)CNC(=O)[C@@H](NC(=O)[C@@H](NC(=O)[C@H](Cc1c[nH]cn1)NC(=O)[C@H](Cc1c[nH]cn1)NC(=O)[C@@H](NC(=O)[C@@H](N)Cc1ccccc1)[C@@H](C)CC)[C@@H](C)CC)[C@@H](C)CC)C(C)C)[C@@H](C)CC)C(=O)N[C@@H](Cc1c[nH]cn1)C(=O)NCC(=O)N[C@@H](Cc1c[nH]cn1)C(=O)O [TP3, tilapia piscidin 3] (H-FIHHIIGGLFSVGKHIHSLIHGH-OH) | – | – | – | – | – | 250 µg/mL | 2 to 3 h | 86.7% | 73.3% | 66.7% | 56.7%

Reference: paper PMC5234776, “Study of the Antimicrobial Activity of Tilapia Piscidin 3 (TP3) and TP4 and Their Effects on Immune Functions in Hybrid Tilapia (Oreochromis spp.)” (PLoS ONE, 2017)
